Assays:
Assay in all cases: biochemical
[1] = target: T1, panel of 374 wild-type kinases (Homo sapiens, UniProt P53778); conditions: read-out: % Enzyme Activity (relative to DMSO controls), kinase P38g
T1 construct: purchased Reaction Biology Corporation
T1 sequence (P53778 1-367): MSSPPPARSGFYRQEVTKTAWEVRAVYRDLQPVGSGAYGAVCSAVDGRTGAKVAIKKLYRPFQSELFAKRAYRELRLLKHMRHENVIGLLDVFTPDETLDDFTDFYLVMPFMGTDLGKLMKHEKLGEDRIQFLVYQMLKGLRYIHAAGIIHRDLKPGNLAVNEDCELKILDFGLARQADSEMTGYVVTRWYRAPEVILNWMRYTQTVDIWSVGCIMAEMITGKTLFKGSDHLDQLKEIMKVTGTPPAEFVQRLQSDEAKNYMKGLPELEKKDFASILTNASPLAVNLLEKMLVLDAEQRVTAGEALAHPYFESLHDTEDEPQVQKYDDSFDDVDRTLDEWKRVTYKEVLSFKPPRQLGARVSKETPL

[2] = target: T2, panel of 374 wild-type kinases (Homo sapiens, UniProt P35968); conditions: read-out: % Enzyme Activity (relative to DMSO controls), KDR/VEGFR2
T2 construct: purchased Reaction Biology Corporation
T2 sequence (P35968 20-1356): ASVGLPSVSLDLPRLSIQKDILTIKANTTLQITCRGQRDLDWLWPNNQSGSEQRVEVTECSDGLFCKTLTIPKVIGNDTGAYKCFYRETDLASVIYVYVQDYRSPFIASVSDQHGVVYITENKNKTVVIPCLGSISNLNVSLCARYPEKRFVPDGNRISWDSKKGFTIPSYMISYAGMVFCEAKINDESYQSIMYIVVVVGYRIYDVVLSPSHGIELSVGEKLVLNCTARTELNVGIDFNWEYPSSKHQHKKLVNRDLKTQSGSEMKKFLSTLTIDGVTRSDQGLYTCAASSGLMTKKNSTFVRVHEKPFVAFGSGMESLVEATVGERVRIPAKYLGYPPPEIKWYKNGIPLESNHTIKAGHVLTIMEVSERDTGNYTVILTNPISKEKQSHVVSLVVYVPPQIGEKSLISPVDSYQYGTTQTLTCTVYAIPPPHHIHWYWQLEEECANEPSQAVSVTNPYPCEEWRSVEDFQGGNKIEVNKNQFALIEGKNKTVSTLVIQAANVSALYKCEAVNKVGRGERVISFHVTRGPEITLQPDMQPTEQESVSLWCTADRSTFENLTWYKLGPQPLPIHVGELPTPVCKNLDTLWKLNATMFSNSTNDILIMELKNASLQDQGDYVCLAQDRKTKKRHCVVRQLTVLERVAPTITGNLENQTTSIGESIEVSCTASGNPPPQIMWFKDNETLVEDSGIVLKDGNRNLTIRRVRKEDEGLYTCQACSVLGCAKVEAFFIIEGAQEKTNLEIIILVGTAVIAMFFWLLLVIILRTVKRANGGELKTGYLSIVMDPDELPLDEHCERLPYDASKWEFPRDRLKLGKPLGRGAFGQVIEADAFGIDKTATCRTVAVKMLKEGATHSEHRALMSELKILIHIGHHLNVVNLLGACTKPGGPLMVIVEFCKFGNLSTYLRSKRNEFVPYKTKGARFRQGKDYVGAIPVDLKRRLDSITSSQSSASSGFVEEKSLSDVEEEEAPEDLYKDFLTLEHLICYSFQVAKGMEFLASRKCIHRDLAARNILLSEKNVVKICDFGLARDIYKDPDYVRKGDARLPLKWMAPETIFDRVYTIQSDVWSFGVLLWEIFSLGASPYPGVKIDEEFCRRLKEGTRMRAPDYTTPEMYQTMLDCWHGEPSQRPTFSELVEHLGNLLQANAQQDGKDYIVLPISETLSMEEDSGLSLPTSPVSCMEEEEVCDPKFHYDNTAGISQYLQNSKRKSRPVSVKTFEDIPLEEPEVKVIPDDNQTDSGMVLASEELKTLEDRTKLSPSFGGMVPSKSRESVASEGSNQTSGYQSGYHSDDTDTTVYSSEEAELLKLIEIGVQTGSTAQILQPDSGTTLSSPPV

[3] = target: T3, panel of 374 wild-type kinases (Homo sapiens, UniProt Q76MJ5); conditions: read-out: % Enzyme Activity (relative to DMSO controls), ERN2/IRE2
T3 construct: purchased Reaction Biology Corporation
T3 sequence (Q76MJ5 35-926): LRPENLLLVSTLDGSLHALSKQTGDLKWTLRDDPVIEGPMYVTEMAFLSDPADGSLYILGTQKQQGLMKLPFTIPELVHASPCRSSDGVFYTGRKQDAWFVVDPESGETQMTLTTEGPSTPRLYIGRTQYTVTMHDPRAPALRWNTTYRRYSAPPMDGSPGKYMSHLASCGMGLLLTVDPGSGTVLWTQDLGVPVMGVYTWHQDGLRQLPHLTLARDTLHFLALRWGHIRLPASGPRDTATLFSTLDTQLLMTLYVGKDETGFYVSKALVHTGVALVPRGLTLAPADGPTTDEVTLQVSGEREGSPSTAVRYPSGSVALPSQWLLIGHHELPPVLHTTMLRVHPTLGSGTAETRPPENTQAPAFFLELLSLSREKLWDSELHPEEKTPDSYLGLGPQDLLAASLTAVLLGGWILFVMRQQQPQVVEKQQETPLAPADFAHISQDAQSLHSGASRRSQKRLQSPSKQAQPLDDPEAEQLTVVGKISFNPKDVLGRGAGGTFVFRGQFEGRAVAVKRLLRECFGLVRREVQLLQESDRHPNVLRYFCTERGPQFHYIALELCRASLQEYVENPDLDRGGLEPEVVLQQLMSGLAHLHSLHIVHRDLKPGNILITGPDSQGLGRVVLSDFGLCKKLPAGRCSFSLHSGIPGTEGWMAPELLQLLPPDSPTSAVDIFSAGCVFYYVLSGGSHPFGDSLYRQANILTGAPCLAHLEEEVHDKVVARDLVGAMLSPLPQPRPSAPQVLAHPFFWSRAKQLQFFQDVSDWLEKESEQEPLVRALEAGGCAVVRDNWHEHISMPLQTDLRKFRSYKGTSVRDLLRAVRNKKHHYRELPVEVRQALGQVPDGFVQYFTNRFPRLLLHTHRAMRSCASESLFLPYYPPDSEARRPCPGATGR

[4] = target: T4, panel of 374 wild-type kinases (Homo sapiens, UniProt P28482); conditions: read-out: % Enzyme Activity (relative to DMSO controls), ERK2/MAPK1
T4 construct: purchased Reaction Biology Corporation
T4 sequence (P28482 whole entry): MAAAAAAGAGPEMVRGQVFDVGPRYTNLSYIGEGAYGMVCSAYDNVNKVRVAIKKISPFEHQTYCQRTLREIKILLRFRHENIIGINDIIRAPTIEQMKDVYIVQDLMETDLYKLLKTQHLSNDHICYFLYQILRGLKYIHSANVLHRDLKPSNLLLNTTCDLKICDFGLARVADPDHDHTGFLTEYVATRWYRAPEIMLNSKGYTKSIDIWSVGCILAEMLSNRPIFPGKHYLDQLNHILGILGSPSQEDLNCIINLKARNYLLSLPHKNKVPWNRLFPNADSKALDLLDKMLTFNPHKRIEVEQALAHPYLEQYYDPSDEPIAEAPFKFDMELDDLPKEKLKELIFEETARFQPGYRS

[5] = target: T5, panel of 374 wild-type kinases (Homo sapiens, UniProt P29323); conditions: read-out: % Enzyme Activity (relative to DMSO controls), EPHB2
T5 construct: purchased Reaction Biology Corporation
T5 sequence (P29323 19-1055): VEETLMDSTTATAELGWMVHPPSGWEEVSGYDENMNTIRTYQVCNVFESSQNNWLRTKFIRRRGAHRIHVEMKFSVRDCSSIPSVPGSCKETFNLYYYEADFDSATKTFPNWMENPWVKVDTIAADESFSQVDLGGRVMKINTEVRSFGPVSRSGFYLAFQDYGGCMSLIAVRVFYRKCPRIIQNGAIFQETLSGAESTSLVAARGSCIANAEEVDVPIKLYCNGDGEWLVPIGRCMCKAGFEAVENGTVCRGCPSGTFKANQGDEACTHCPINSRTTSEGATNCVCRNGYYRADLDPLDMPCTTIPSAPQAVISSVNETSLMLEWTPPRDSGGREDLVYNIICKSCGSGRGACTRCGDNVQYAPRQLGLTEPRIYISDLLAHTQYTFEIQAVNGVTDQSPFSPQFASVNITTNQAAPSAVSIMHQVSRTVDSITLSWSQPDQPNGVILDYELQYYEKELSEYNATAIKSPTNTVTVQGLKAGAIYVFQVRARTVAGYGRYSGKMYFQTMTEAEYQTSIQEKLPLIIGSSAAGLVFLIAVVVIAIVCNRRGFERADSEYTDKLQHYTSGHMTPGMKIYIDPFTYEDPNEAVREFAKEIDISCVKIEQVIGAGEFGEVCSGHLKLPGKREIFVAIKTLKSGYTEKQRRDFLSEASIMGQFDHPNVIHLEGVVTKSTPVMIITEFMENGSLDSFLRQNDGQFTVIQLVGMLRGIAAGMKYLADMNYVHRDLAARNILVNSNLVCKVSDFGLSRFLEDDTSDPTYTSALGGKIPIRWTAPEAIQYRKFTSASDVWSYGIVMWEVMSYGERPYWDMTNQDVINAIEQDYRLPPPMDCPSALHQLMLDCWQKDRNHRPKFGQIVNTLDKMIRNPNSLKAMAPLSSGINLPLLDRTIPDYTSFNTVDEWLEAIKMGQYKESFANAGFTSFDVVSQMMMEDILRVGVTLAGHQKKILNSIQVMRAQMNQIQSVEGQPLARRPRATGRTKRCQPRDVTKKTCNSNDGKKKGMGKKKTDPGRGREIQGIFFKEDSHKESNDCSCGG

[6] = target: T6, panel of 374 wild-type kinases (Homo sapiens, UniProt P11309); conditions: read-out: % Enzyme Activity (relative to DMSO controls), kinase PIM1
T6 construct: purchased Reaction Biology Corporation
T6 sequence (P11309 whole entry): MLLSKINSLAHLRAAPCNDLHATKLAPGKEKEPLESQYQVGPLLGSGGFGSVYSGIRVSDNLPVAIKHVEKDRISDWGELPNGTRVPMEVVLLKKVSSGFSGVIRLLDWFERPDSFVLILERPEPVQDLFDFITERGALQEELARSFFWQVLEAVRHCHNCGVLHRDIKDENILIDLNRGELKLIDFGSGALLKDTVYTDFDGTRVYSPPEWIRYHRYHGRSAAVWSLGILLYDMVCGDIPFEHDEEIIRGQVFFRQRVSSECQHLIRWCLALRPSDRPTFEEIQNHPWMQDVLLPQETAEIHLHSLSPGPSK

[7] = target: T7, panel of 374 wild-type kinases (Homo sapiens, UniProt Q15418); conditions: read-out: % Enzyme Activity (relative to DMSO controls), kinase RSK1
T7 construct: purchased Reaction Biology Corporation
T7 sequence (Q15418 whole entry): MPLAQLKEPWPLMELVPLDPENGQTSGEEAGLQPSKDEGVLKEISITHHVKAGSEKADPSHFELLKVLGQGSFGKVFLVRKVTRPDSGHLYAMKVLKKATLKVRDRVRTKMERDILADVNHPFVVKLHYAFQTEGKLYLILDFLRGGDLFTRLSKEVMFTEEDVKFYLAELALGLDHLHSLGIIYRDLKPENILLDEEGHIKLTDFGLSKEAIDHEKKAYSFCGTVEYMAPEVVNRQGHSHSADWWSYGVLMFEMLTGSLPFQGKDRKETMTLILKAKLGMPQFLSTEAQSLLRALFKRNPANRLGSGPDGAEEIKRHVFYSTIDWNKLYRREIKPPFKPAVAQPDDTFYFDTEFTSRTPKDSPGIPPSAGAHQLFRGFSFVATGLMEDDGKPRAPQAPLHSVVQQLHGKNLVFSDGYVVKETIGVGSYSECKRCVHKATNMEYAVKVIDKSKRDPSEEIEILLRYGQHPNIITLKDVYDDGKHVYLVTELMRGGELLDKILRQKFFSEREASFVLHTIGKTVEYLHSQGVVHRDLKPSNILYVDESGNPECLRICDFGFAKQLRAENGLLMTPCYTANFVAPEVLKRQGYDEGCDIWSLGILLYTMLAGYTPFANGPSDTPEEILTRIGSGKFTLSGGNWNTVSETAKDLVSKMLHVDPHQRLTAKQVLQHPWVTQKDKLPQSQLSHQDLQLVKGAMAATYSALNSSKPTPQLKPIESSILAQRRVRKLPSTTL

[8] = target: T8, panel of 374 wild-type kinases (Homo sapiens, UniProt O00141); conditions: read-out: % Enzyme Activity (relative to DMSO controls), kinase SGK1
T8 construct: purchased Reaction Biology Corporation
T8 sequence (O00141 1-431): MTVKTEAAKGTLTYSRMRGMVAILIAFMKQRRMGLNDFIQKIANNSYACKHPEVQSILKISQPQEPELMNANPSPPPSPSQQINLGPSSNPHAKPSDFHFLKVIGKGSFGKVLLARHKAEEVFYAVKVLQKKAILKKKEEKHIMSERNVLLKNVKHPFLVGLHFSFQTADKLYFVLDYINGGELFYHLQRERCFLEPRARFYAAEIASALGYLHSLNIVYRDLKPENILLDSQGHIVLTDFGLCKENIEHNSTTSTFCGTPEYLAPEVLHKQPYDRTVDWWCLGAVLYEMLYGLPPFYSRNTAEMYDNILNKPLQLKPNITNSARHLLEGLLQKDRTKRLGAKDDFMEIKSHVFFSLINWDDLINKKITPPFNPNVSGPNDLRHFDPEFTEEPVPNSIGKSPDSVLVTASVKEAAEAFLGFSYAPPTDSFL

Structure (SMILES): O=C(Nc1cnn(-c2csc(C(=O)NC3COC3)c2)c1)Nc1c(F)cccc1Cl [Compound 25, 4-(4-(3-(2-chloro-6-fluorophenyl)ureido)-1H-pyrazol-1-yl)-N-(oxetan-3-yl)thiophene-2-carboxamide]
- remaining activity at 5 µM [1]: 98.3%
- remaining activity at 5 µM [2]: 88.3%
- remaining activity at 5 µM [3]: 100%
- remaining activity at 5 µM [4]: 85.9%
- remaining activity at 5 µM [5]: 99.9%
- remaining activity at 5 µM [6]: 73.3%
- remaining activity at 5 µM [7]: 96.3%
- remaining activity at 5 µM [8]: 95.4%

Structure (SMILES): O=C(Nc1cnn(-c2csc(C(=O)NC3COC3)c2)c1)Nc1ccccc1Cl [Compound 17, 4-(4-(3-(2-chlorophenyl)ureido)-1H-pyrazol-1-yl)-N-(oxetan-3-yl)thiophene-2-carboxamide]
- remaining activity at 5 µM [1]: 99.4%
- remaining activity at 5 µM [2]: 95.2%
- remaining activity at 5 µM [3]: 100%
- remaining activity at 5 µM [4]: 110%
- remaining activity at 5 µM [5]: 101%
- remaining activity at 5 µM [6]: 64.6%
- remaining activity at 5 µM [7]: 92.4%
- remaining activity at 5 µM [8]: 93.7%

Structure (SMILES): Cc1sc(C(=O)NC2COC2)cc1-n1cc(NC(=O)Nc2c(F)cccc2Cl)cn1 [Compound 27, 4-(4-(3-(2-chloro-6-fluorophenyl)ureido)-1H-pyrazol-1-yl)-5-methyl-N-(oxetan-3-yl)thiophene-2-carboxamide]
- remaining activity at 10 µM ([1]; 10 uM): 90.5%
- remaining activity at 10 µM ([2]; 10 uM): 88.2%
- remaining activity at 10 µM ([3]; 10 uM): 80.7%
- remaining activity at 10 µM ([4]; 10 uM): 90.8%
- remaining activity at 10 µM ([5]; 10 uM): 109%
- remaining activity at 10 µM ([6]; 10 uM): 95.1%
- remaining activity at 10 µM ([7]; 10 uM): 93.2%
- remaining activity at 10 µM ([8]; 10 uM): 115%

Source: patent US20240246942A1, “KINASE INHIBITORS FOR THE TREATMENT OF NEURODEGENERATIVE DISEASES” (priority 2020, published 2024)
